IC50 data for 18 molecules are collected here from US12522594B2, “2-heteroaryl-3-oxo-2,3-dihydropyridazine-4-carboxamides for the treatment of cancer” (Deutsches Krebsforschungszentrum, priority 2017, dated 2026).

What is called pIC50 is the negative decadic logarithm of the IC50, by convention in mol/L.

pIC50: −log10 of the molar value. Where only a bound is given, the exact number is not on record here.

Assay [1] concerns the target T1, AHR (Homo sapiens, UniProt P35869).
T1 sequence (P35869 11-848): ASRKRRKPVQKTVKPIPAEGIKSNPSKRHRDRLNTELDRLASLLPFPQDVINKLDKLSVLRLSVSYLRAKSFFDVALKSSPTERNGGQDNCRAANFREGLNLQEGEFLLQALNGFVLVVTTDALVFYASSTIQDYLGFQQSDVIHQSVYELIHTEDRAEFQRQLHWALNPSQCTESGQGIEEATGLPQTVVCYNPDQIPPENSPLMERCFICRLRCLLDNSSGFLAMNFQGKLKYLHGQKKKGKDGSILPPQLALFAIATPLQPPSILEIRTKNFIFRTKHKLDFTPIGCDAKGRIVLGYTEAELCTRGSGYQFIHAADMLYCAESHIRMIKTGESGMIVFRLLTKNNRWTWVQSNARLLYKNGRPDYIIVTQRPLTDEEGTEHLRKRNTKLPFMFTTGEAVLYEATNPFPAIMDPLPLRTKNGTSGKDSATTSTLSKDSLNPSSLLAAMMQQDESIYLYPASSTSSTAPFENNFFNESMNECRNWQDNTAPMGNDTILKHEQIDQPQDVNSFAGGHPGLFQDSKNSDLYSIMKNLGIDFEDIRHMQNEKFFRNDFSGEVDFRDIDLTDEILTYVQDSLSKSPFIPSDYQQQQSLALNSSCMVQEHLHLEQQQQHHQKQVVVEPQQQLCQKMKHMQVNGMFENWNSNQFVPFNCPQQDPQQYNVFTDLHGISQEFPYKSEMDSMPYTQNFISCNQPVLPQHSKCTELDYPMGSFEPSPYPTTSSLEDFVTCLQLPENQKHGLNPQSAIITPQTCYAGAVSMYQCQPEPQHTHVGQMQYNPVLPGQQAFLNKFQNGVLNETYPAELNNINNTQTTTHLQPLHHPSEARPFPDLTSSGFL
The assay is described as follows: In vitro assay 1: antagonism in human cell line (transactivation assay, U87 cells prestimulated with kynurenic acid, DRE firefly luciferase reporter). The assay is classed as cell-based. The arrangement: host or cells: U87 glioblastoma cells, stably transfected with DRE firefly luciferase and renilla reporter constructs. As to conditions: 150 uM kynurenic acid, 20 hours, read-out: Assay 1: AHR-luc Hum Antagonism IC50. A digest of the protocol:
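Antagonism measured after kynurenic acid prestimulation in U87 cells that express AHR endogenously and stably harbor a firefly luciferase gene under DRE control plus a constitutive renilla construct. Positive and negative controls served for normalization.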

Assay [2] addresses T1, AHR. Briefly: In vitro assay 2: agonism in human cell line (transactivation assay, U87 cells, DRE firefly luciferase reporter). Format: cell-based. Particulars: no kynurenic acid, 20 hours, read-out: Assay 2: AHR-luc Hum Agonism IC50. The arrangement: host or cells: U87 glioblastoma cells, stably transfected with DRE firefly luciferase and renilla reporter constructs. A digest of the protocol: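 Agonist readout: DRE firefly luciferase, with constitutive renilla reporter, in stably transfected U87 cells expressing AHR endogenously. Normalization used positive control (300 uM kynurenic acid) and negative control.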
Background: Reporter assays use an easily measured gene product as a stand-in for the process of interest.

As for `Cn1cc(-n2nc(-c3ccc(OC(F)F)cc3)cc(C(=O)NC(C(C)(C)O)C(F)(F)F)c2=O)cn1` (single isomer, unassigned) [Example 307, 6-[4-(Difluoromethoxy)phenyl]-2-(1-methyl-1H-pyrazol-4-yl)-3-oxo-N-(1,1,1-trifluoro-3-hydroxy-3-methylbutan-2-yl)-2,3-dihydropyridazine-4-carboxamide], the values for the pIC50 in assay [1] and in assay [2] were 7.13 and below 4.70, respectively.

With `CC(C)(O)C(NC(=O)c1cc(-c2ccc(Cl)cc2)nn(-c2cccnc2)c1=O)C(F)(F)F` (stereo not drawn) [Example 121, 6-(4-Chlorophenyl)-3-oxo-2-(pyridin-3-yl)-N-(1,1,1-trifluoro-3-hydroxy-3-methylbutan-2-yl)-2,3-dihydropyridazine-4-carboxamide], the values for the pIC50 in assay [1] and in assay [2] were 8.60 and below 4.70, respectively.

Consider `O=C(N[C@H](CO)C1CC1)c1cc(-c2ccc(C(F)(F)F)nc2)nn(-c2cncc(F)c2)c1=O` [Example 339, N-[(1S)-1-Cyclopropyl-2-hydroxyethyl]-2-(5-fluoropyridin-3-yl)-3-oxo-6-[6-(trifluoromethyl)pyridin-3-yl]-2,3-dihydropyridazine-4-carboxamide], for which the pIC50 in assay [1] was 7.56; in assay [2] it was below 4.70.

With `C[C@@H](CO)NC(=O)c1cc(-c2ccc(Cl)cc2)nn(-c2cnn(C(F)F)c2)c1=O` [Example 272, 6-(4-Chlorophenyl)-2-[1-(difluoromethyl)-1H-pyrazol-4-yl]-N-[(2S)-1-hydroxypropan-2-yl]-3-oxo-2,3-dihydropyridazine-4-carboxamide], the pIC50 in assay [1] was 7.04; in assay [2], below 4.70.

`C[C@H](O)[C@H](C)NC(=O)c1cc(-c2ccc(OC(F)F)cc2)nn(-c2cccnc2)c1=O` [Example 334, 6-[4-(Difluoromethoxy)phenyl]-N-[(2S,3S)-3-hydroxybutan-2-yl]-3-oxo-2-(pyridin-3-yl)-2,3-dihydropyridazine-4-carboxamide]: the pIC50 is 7.22 in assay [1] and below 4.70 in assay [2].

On to `O=C(N[C@@H]1CC[C@@H]1O)c1cc(-c2ccc(Cl)cc2)nn(-c2cccnc2)c1=O` (relative stereo) [Example 258, 6-(4-Chlorophenyl)-N-cis-2-hydroxycyclobutyl-3-oxo-2-(pyridin-3-yl)-2,3-dihydropyridazine-4-carboxamide], for which the pIC50 in assay [1] was 7.56; in assay [2], below 4.70.

With `O=C(NC[C@H](O)C(F)(F)F)c1cc(-c2ccc(C(F)(F)F)cc2)nn(-c2cn[nH]c2)c1=O` [Example 216, 3-Oxo-2-(1H-pyrazol-4-yl)-N-[(2S)-3,3,3-trifluoro-2-hydroxypropyl]-6-[4-(trifluoromethyl)phenyl]-2,3-dihydropyridazine-4-carboxamide], the pIC50 was 8.62 in assay [1] and below 4.70 in assay [2].

For `O=C(N[C@@H]1CC[C@@H]1O)c1cc(-c2ccc(Cl)cc2)nn(-c2cccnc2)c1=O` (single isomer, unassigned) [Example 249, (+)-6-(4-Chlorophenyl)-N-cis-2-hydroxycyclo-butyl-3-oxo-2-(pyridin-3-yl)-2,3-dihydropyridazine-4-carboxamide], the negative logarithm of the IC50 (pIC50) is 7.82 in assay [1] and below 4.70 in assay [2].

As for `CC(C)(O)C(NC(=O)c1cc(-c2ccc(Cl)cc2)nn(-c2cncnc2)c1=O)C(F)(F)F` (stereo not drawn) [Example 185, 6-(4-Chlorophenyl)-3-oxo-2-(pyrimidin-5-yl)-N-(1,1,1-trifluoro-3-hydroxy-3-methylbutan-2-yl)-2,3-dihydropyridazine-4-carboxamide], the pIC50 is 7.43 in assay [1] and below 4.70 in assay [2].

On to `COC[C@@H](CO)NC(=O)c1cc(-c2ccc(Cl)cc2)nn(-c2cccnc2)c1=O` [Example 75, (−)-6-(4-Chlorophenyl)-N-[(2R)-1-hydroxy-3-methoxypropan-2-yl]-3-oxo-2-(pyridin-3-yl)-2,3-dihydropyridazine-4-carboxamide], for which the pIC50 in assay [1] was 7.08; in assay [2], below 4.70.

In the case of `C[C@@H](CO)NC(=O)c1cc(-c2ccc(CF)cc2)nn(-c2cnn(C)c2)c1=O` [Example 287, 6-[4-(Fluoromethyl)phenyl]-N-[(2S)-1-hydroxypropan-2-yl]-2-(1-methyl-1H-pyrazol-4-yl)-3-oxo-2,3-dihydropyridazine-4-carboxamide], the pIC50 in assay [1] was 6.14; in assay [2], below 4.70.

As to `O=C(NC[C@@H](O)CO)c1cc(-c2ccc(Cl)cc2)nn(-c2cncc(F)c2)c1=O` [Example 98, 6-(4-Chlorophenyl)-N-[(2R)-2,3-dihydroxypropyl]-2-(5-fluoropyridin-3-yl)-3-oxo-2,3-dihydropyridazine-4-carboxamide], the figures for the pIC50 in assay [1] and in assay [2] were 6.60 and below 4.70, respectively.

For the molecule `CC(C)(O)C(NC(=O)c1cc(-c2ccc(OC(F)(F)F)cc2)nn(-c2cccnc2)c1=O)C(F)(F)F` (stereo not drawn) [Example 135, 3-Oxo-2-(pyridin-3-yl)-N-[1,1,1-trifluoro-3-hydroxy-3-methylbutan-2-yl]-6-[4-(trifluoromethoxy)phenyl]-2,3-dihydropyridazine-4-carboxamide], the pIC50 is 8.10 in assay [1] and below 4.70 in assay [2].

In the case of `O=C(NC[C@H](O)C(F)(F)F)c1cc(-c2ccc(Cl)cc2)nn(-c2cnsc2)c1=O` [Example 199, 6-(4-Chlorophenyl)-3-oxo-2-(1,2-thiazol-4-yl)-N-[(2S)-3,3,3-trifluoro-2-hydroxypropyl]-2,3-dihydropyridazine-4-carboxamide], the results for the negative-log IC50 (pIC50) in assay [1] and in assay [2] were 9.16 and below 4.70, respectively.

Regarding `Cc1ccc(-c2cc(C(=O)NC(CO)C(C)C)c(=O)n(-c3cnn(C)c3)n2)cc1` (single isomer, unassigned) [Example 3, N-(1-Hydroxy-3-methylbutan-2-yl)-6-(4-methylphenyl)-2-(1-methyl-1H-pyrazol-4-yl)-3-oxo-2,3-dihydropyridazine-4-carboxamide], the figures for the pIC50 in assay [1] and in assay [2] were 6.98 and below 4.70, respectively.

In the case of `C[C@H](NC(=O)c1cc(-c2ccc(C(F)(F)F)cc2)nn(-c2cnn(C)c2)c1=O)C(C)(C)O` [Example 206, N-[(2S)-3-Hydroxy-3-methylbutan-2-yl]-2-(1-methyl-1H-pyrazol-4-yl)-3-oxo-6-[4-(trifluoromethyl)phenyl]-2,3-dihydropyridazine-4-carboxamide], the pIC50 in assay [1] is 8.97; in assay [2] it was below 4.70.

With `Cn1cc(-n2nc(-c3ccc(C(F)(F)F)cc3)cc(C(=O)N[C@@H]3CCC[C@@H]3O)c2=O)cn1` [Example 239, N-[(1R,2S)-2-Hydroxycyclopentyl]-2-(1-methyl-1H-pyrazol-4-yl)-3-oxo-6-[4-(trifluoromethyl)phenyl]-2,3-dihydropyridazine-4-carboxamide], the pIC50 in assay [1] was 8.00; in assay [2], below 4.70.

Take `O=C(N[C@@H]1CSC[C@@H]1O)c1cc(-c2ccc(C(F)(F)F)cc2)nn(-c2cccnc2)c1=O` (single isomer, unassigned) [Example 291, (−)-N-cis-4-hydroxy-tetrahydrothiophen-3-yl-3-oxo-2-(pyridin-3-yl)-6-[4-(trifluoromethyl)phenyl]-2,3-dihydropyridazine-4-carboxamide]: the pIC50 is 8.36 in assay [1] and below 4.70 in assay [2].
